From patent US5716971A, “Pyridine derivatives, their production and use” (Takeda Chemical Industries, Ltd., priority 1993, dated 1998)
Read-outs that look alike come from different tables or passages of the source.

Experiments:
specimen of rat aorta [1] = assay: Vasorelaxation activity in a specimen of rat aorta: contraction caused by TEA and BaCl2; conditions: TEA (30-45 mM) and BaCl2 (0.3 mM) contraction, read-out: constriction inhibitory ratio
Method: Vasorelaxation activity in a specimen of rat aorta Effects on contraction caused by tetraethylammonium chloride (TEA) and barium chloride (BaCl2)
(§1) Male Wister rats (10 to 13 week old were employed for the experiment. After dehematization, the aorta was excised and a ring specimen (5 mm length) was prepared. The specimen was suspended in a bath filled with oxygenated (95% O2 -5%CO2) Krebs solution (36° C.). The ring specimen was fixed at one end and the other end was connected to a transducer (Nippon Koden) for recording tension to determine the tension. After a stabilization period of one hour, TEA (30-45 mM) and BaCl2 (0.3 mM) were added to the bath to cause vasoconstriction. After the constriction had reached a steady state (after about 15 minutes), a test compound was added to the bath and its relaxation activity was measured.

anesthetized dogs = assay: Action of increasing coronary blood flow in anesthetized dogs (administration into coronary artery); assay type: in vivo, dog; conditions: injected into coronary artery, 30 ug/day, anesthetized Beagle dogs
Method: Action of increasing coronary blood flow in anesthetized dogs (Administration into coronary artery) Method: Beagle dogs (10 to 12 kg body weight) were anesthetized with pentobarbital and subjected to thoractomy under artificial respiration. A by-pass fitted with an electromagnetic flowmeter (Nippon Koden) was prepared between the left coronary artery and left carotid artery,and the volume of coronary blood flow was measured. […]
Maximal change rate against the value measured before the administration (% of basal flow) and the duration period [shown in terms of the time (T1/2) in which the activity is reduced to half] are shown in Table 67. As a result, it is apparent that the compounds of this invention show action of increasing coronary blood flow.

specimen of rat aorta [2] = assay: Vasorelaxation activity in a specimen of rat aorta: contraction caused by KCl; conditions: read-out: constriction inhibitory ratio
Method: as §1
Vasorelaxation activity in a specimen of rat aorta Effects on contraction caused by potassium chloride (KCl)
The same experiment was conducted as in Experiment 1, excepting the use of KCl ([…]) instead of TEA and BaCl2

[3] = tested on: Spontaneously hypertensive rats; assay: Hypotensive activity in rats (Tail Cuff Method), oral; assay type: in vivo; conditions: Rattus norvegicus, SHR
Method: Hypotensive activity in rats (Tail Cuff Method)
Spontaneously hypertensive rats (SHR, male, 20 to 23 week old) were warmed up to 36° C. The blood pressure at the tail aorta was measured by the tail cuff method. The blood pressure was measured three times, i.e. before oral administration of the test compound, two hours after the administration and five hours after the administration. The test compound was orally administered in the state of a suspension in gum arabic.
Maximal, hypotensive effect against the blood pressure before the administration is shown as % pre. in Table 66. As a result, it is apparent that the compounds of this invention show hypotensive activity.

[4] = after 2 hours, read-out: Maximal hypotensive effect against blood pressure before administration (% pre.), after 2 hours
[5] = after 5 hours, read-out: Maximal hypotensive effect against blood pressure before administration (% pre.), after 5 hours

CC(C)(C)O/N=C(/c1cc(Br)c(Cl)cc1O)c1ncccc1O [Compound 38, (Z)-2-(5-bromo-4-chloro-2-hydroxybenzoyl)-3-hydroxypyridine O-t-butyloxime]
inhibition at 1 µM (specimen of rat aorta [1]): 92%
inhibition at 3 µM (specimen of rat aorta [1]): 100%
duration (T1/2): time in which the activity is reduced to half (anesthetized dogs): 4.7 min
inhibition at 1 µM (specimen of rat aorta [2]): 0%
inhibition at 3 µM (specimen of rat aorta [2]): 1%
inhibition in vivo at 10 mg/kg [3, 4]: 29%
inhibition in vivo at 10 mg/kg [3, 5]: 13%

CC(C)(C)O/N=C(/c1cc(F)c(Cl)cc1O)c1ncccc1O [Compound 40, (Z)-2-(4-chloro-5-fluoro-2-hydroxybenzoyl)-3-hydroxypyridine O-t-butyloxime]
inhibition at 1 µM (specimen of rat aorta [1]): 85%
inhibition at 3 µM (specimen of rat aorta [1]): 72%
duration (T1/2): time in which the activity is reduced to half (anesthetized dogs): 2.8 min
inhibition at 1 µM (specimen of rat aorta [2]): 0%
inhibition at 3 µM (specimen of rat aorta [2]): 0%
inhibition in vivo at 10 mg/kg [3, 4]: 30%
inhibition in vivo at 10 mg/kg [3, 5]: 11%

CC(C)(C)O/N=C(/c1cc(Cl)c(F)cc1O)c1c(O)ccc[n+]1[O-] [Compound 58, (Z)-2-(5-chloro-4-fluoro-2-hydroxybenzoyl)-3-hydroxypyridine N-oxide O-t-butyloxime]
inhibition at 1 µM (specimen of rat aorta [1]): 84%
inhibition at 3 µM (specimen of rat aorta [1]): 94%
duration (T1/2): time in which the activity is reduced to half (anesthetized dogs): 47.7 min
inhibition at 1 µM (specimen of rat aorta [2]): 0%
inhibition at 3 µM (specimen of rat aorta [2]): 0%
inhibition in vivo at 1 mg/kg [3, 4]: 35%
inhibition in vivo at 1 mg/kg [3, 5]: 19%
inhibition in vivo at 10 mg/kg [3, 4]: 55%
inhibition in vivo at 10 mg/kg [3, 5]: 45%

CC(C)(C)O/N=C(/c1cc(Br)ccc1O)c1c(O)ccc[n+]1[O-] [Compound 63, (Z)-2-(5-bromo-2-hydroxybenzoyl)-3-hydroxypyridine N-oxide O-t-butyloxime]
inhibition at 1 µM (specimen of rat aorta [1]): 13%
inhibition at 3 µM (specimen of rat aorta [1]): 61%
inhibition at 10 µM (specimen of rat aorta [1]): 100%
duration (T1/2): time in which the activity is reduced to half (anesthetized dogs): 2.4 min
inhibition at 1 µM (specimen of rat aorta [2]): 0%
inhibition at 3 µM (specimen of rat aorta [2]): 0%
inhibition at 10 µM (specimen of rat aorta [2]): 0%
inhibition in vivo at 10 mg/kg [3, 4]: 42%
inhibition in vivo at 10 mg/kg [3, 5]: 54%

Cc1cc(O)c(/C(=N/OC(C)(C)C)c2c(O)ccc[n+]2[O-])cc1Br [Compound 67, (Z)-2-(5-bromo-2-hydroxy-4-methylbenzoyl)-3-hydroxypyridine N-oxide O-t-butyloxime]
inhibition at 1 µM (specimen of rat aorta [1]): 32%
inhibition at 3 µM (specimen of rat aorta [1]): 89%
inhibition at 10 µM (specimen of rat aorta [1]): 100%
duration (T1/2): time in which the activity is reduced to half (anesthetized dogs): 8.9 min
inhibition at 1 µM (specimen of rat aorta [2]): 0%
inhibition at 3 µM (specimen of rat aorta [2]): 0%
inhibition at 10 µM (specimen of rat aorta [2]): 0%
inhibition in vivo at 10 mg/kg [3, 4]: 28%
inhibition in vivo at 10 mg/kg [3, 5]: 35%

CC(C)(C)O/N=C(/c1cc(Br)c(Cl)cc1O)c1cccc[n+]1[O-] [Compound 101, (Z)-2-(5-bromo-4-chloro-2-hydroxybenzoyl)pyridine N-oxide O-t-butyloxime]
inhibition at 1 µM (specimen of rat aorta [1]): 71%
inhibition at 3 µM (specimen of rat aorta [1]): 65%
duration (T1/2): time in which the activity is reduced to half (anesthetized dogs): 7.9 min
inhibition at 1 µM (specimen of rat aorta [2]): 3%
inhibition at 3 µM (specimen of rat aorta [2]): 25%
inhibition in vivo at 3 mg/kg [3, 4]: 10%
inhibition in vivo at 3 mg/kg [3, 5]: 11%

CC(C)(C)C/N=C(/c1cc(Br)ccc1O)c1cccc[n+]1[O-] [Compound 105, (Z)-2-[(5-bromo-2-hydroxy)-α-neopentyliminobenzyl]pyridine N-oxide]
inhibition at 1 µM (specimen of rat aorta [1]): 46%
inhibition at 3 µM (specimen of rat aorta [1]): 87%
duration (T1/2): time in which the activity is reduced to half (anesthetized dogs): 2.9 min
inhibition at 1 µM (specimen of rat aorta [2]): 4%
inhibition at 3 µM (specimen of rat aorta [2]): 28%
inhibition in vivo at 30 mg/kg [3, 4]: 59%
inhibition in vivo at 30 mg/kg [3, 5]: 44%
